Assay results reported in patent US20130158111A1, “Compositions and Methods for Depleting Mutant p53” (Georgetown University, priority 2011, published 2013).

Experiments:
[1] = tested on: mutant p53 in MDA-MB-231, MDA-MB-468, DU145, SW480, and SCC-4 cells; experiment: Immunoblot of mutant p53 in other tumor cells with mutant p53; assay type: cell-based, Human
Source text: Human H596, A549, HCT116, MDA-MB-231, MDA-MB-468, MCF-7, DU145, MCF-10A, SW480, and SCC-4 cells were obtained from ATCC (Manassas, Va.). H1299-175H cells were kindly provided by Dr. Maria Laura Avantaggiati (Georgetown University). Cells were maintained in DMEM or RPMI-1640 medium supplemented with 10% FBS (Hyclone). DMSO, PEITC, BITC, SFN, AITC, NMPEA, and monochlorobimane were purchased from Sigma-Aldrich (St. Louis, Mo.). 2,2-Diphenylethyl ITC, 4-phenoxybenzyl ITC, 4-methoxybenzyl ITC, 4-chlorobenzyl ITC, Dα-methylbenzyl ITC, trityl ITC, and 3-phenylpropyl ITC were purchased from Trans World Chemicals (Rockville, Md.). Erucin and 4-phenylbutyl ITC were from LKT Laboratories, Inc. (St. Paul, Minn.). […] All the compounds are with purities ≧95% as determined by gas-liquid chromatography or HPLC. […]
Whole cell lysates were prepared in lysis buffer (20 mM HEPES, pH 7.4, 2 mM EGTA, 50 mM β-glycerol phosphate, 1% Triton X-100, 10% glycerol, 1 mM DTT, 1 mM PMSF, […], 1 mM Na3-VO4, and 5 mM NaF). […] Proteins were detected using enhanced chemiluminescence (ECL) reagents (GE Healthcare). […]

[2] = biological target: T1, mutant (G245C) p53 DNA-binding domain (Homo sapiens, UniProt P04637, G245C); experiment: Monochlorobimane fluorometric cysteine binding assay; conditions: 100 μM ITC, 1 h, 32 C; compared with trityl ITC, cyclohexylmethyl ITC, SFN, AITC, and PITC (p<0.05)
T1 construct: made in house; host or cells: Escherichia coli BL21
Procedure: BL21 […] Escherichia coli were transformed with pET29b wild-type or mutant (G245C) p53 DNA binding domain (DBD) plasmids. The E. coli were then cultured in LB media supplemented with 100 μM ZnCl2 and 25 μg/mL kanamycin at 37° C. until OD600=0.6-0.8. Protein expression was induced by 0.1 mM isopropyl β-D-1-thiogalactopyranoside for 16 h at 37 gC for wild-type and 16 gC for mutant p53. Bacterial pellets were then harvested by centrifugation at 5000×g, 10 min, 4 gC, and lysed via sonication in 50 mM Tris, 50 mM KCl, 5 mM dithiothreitol, 1 mM PMSF, pH 7 buffer. The soluble fraction was passed through a Capto S cation exchange column (GE Healthcare) and eluted with 50 mM Tris, 200 mM KCl, 5 mM DTT, pH 7. Eluted protein was dialyzed overnight against a non-salt dialysis buffer (50 mM Tris, 5 mM DTT, pH 7) and loaded onto a HiTrap Heparin HP column (GE Healthcare). The p53 DBD was purified via a AKTApurifier-10 protein liquid chromatography system (GE Healthcare) with an increasing KCl salt gradient, and purity was tested by SDSPAGE and Coomassie blue staining. Purified protein was dialyzed in PBS, and protein concentrations were determined prior to performing fluorescence experiments.
In a white 96-well plate, 100 μL of purified mutant (G245C) p53 DNA-binding domain protein in PBS was treated with DMSO, 100 μM ITCs in DMSO, or 500 μM iodoacetamide (positive binding control). An additional well containing 100 μL of PBS was used to determine background. Samples were incubated with compounds in the dark for 1 h at 32 gC, after which […] of 10 mM monochlorobimane was added (in the dark), and samples were further incubated in the dark at 32 gC for 30 min. Fluorescence readings were then obtained using a BIO-TEK Synergy HT plate reader (λex 380 nm; λem 485 nm).

[3] = tested on: DU145 (mutant p53) xenograft tumors; experiment: Xenograft model, DU145 tumors, PEITC diet; assay type: in vivo, BALB/C nu/nu transgenic mice
Procedure: Briefly, 30 BALB/C nu/nu transgenic mice (purchased from Charles River) were randomized into two groups, and fed with powder diet AlN93 (purchased from Research Diets, Inc.) with or without addition of 5 μM PEITC compound (purchased from Sigma-Aldrich). After two weeks of feeding, two xenograft tumors each carrying […] in a volume of 100 μL were established by injection into both flanks of a mouse. Mice were continuously fed with diets with or without PEITC for additional 8 weeks before sacrifice. Diet intake and tumor volume were measured twice every week. Tumors were harvested at the end of bioassay for immunohistochemistry and immunoblot studies. […] Immunohistochemistry assays were carried out to examine the apoptotic markers, such as TUNEL, and anti-proliferation marker Ki67 in tumors from the PEITC-treated vs. untreated mice. This study provides the first in vivo evidence that mutant p53 can be depleted in tumors of mice fed PEITC-containing diet and its depletion seems to correlate with growth inhibition in the mutant p53 tumors.

[4] = biological target: T2, p53R175H mutant protein in SK-BR-3 cells (Homo sapiens, UniProt P04637, R175H); experiment: Immunofluorescence with conformation specific antibodies (PAB240, PAB1620); assay type: cell-based; conditions: SK-BR-3, PEITC 4 hrs vs DMSO
T2 construct: endogenous in cells; host or cells: SK-BR-3
Procedure: To determine if the induction of apoptosis is due to the restoration of WT conformation to the mutant p53 protein, immunoflourescence analysis was performed. SK-BR-3 cells expressing p53R175H mutant protein were treated with PEITC or DMSO as a control for 4 hrs. Cells were stained with the conformation specific antibody (PAB240) that recognizes the mutant p53 or antibody specific for the WT p53 protein (PAB1620).

S=C=NCCc1ccccc1 [PEITC, phenethyl isothiocyanate]
mutant p53 level in five cell lines ([1]; 10 or 15 μM PEITC, time-dependent): depleted mutant p53 in all five cell lines
concentration causing marked reduction in the level of mutant p53 protein ([1]; variety of tumor cell lines): ≥ 10 µM
binding affinity for mutant (G245C) p53 DBD (free thiols, relative fluorescence) [2]: greater binding affinities
p53 level in tumors detected by immunoblot ([3]; DU145 tumors, PEITC diet): moderate, yet significant, decrease
tumor volume ([3]; DU145 xenograft, diet with 5 μM PEITC vs diet without PEITC, 8 weeks): significantly decreased
conformation of p53R175H mutant (PAB1620 staining) [4]: induced conformation change
